Assay results: patent US5597845A, “Substituted alkyldiamine derivatives” (Merrell Pharmaceuticals Inc., priority 1994, dated 1997)

Assays:
NK1 receptor [1] = biological target: T1, NK1 receptor (Cavia porcellus, UniProt P30547); assay: Antagonism of iodinated tachykinin binding: NK1 receptor affinity in guinea pig lungs (125I-Bolton Hunter Lys-3 labeled substance P); details: 125I-substance P 0.1 nM, 90 min room temperature, mean of several experiments
T1 construct: evaluated in guinea pig lungs; tissue Keystone Biologicals, Cleveland, Ohio; host or cells: guinea pig lung
Procedure: (§1) The NK1 receptor affinity of proposed tachykinin antagonists was evaluated in guinea pig lungs (Keystone Biologicals, Cleveland, Ohio) and affinity for the NK2 receptor evaluated in HSKR-1 cells (which are mouse 3T3 fibroblasts expressing the human jejunal NK2 receptor). Tissues or cells were homogenized with a Polytron in 15 volumes of 50 mM Tris-HCl buffer (pH 7.4, 4° C.) and centrifuged. The pellet was resuspended in Tris-HCl buffer and was centrifuged; the pellet was washed twice by resuspension. The final pellet was resuspended at a concentration of 40 mg/ml for tissues and 20 mg/ml for cells in incubation buffer and remained at room temperature for at least 15 min prior to use. Receptor binding was initiated by addition of 250 ul membrane preparation in duplicate to 0.1 nM of the following radioligands: ^125 I-Bolton Hunter Lys-3 labeled substance P and ^125 iodohistidyl-1-neurokinin A; in a final volume of 500 ul of buffer containing 50 mM Tris-HCl (pH 7.4 at room temperature), 0.1% bovine serum albumin, 2 mM MnCl2, 40 ug/ml bacitracin, 4 μg/ml leupeptin and chymostatin, 1 μM thiorphan and various doses of the putative tachykinin antagonists. Incubations were performed at room temperature for 90 min (NK1 receptor assays) or 2 hr (NK2 receptor assay); binding was terminated by addition of 50 mM Tris-HCl buffer (pH 7.4, 4° C.) and filtration under vacuum through GF/B filters presoaked with 0.1% polyethyleneimine (NK, receptor assays) or 0.5% bovine serum albumin (NK2 receptor assay). Filter bound radioactivity was quantitated in a gamma counter. Nonspecific binding was defined as binding in the presence of 1 μM substance P or neurokinin A. Specific binding was calculated by subtracting nonspecific binding from total binding. Competition of iodinated SP or NKA binding by test compounds or standards was expressed as a percentage of this maximum competition. IC50 values (concentration required to inhibit 50% of receptor binding) were generated for each of the test compounds by nonlinear regression using an iterative curve fitting program (GraphPAD Inplot, San Diego, Calif.).
(§2) IC50 values for some of the compounds of the present invention are found in Table 1 and represent the mean of several experiments.

[2] = biological target: T2, human jejunal NK2 receptor (Homo sapiens, UniProt P21452); assay: Antagonism of iodinated tachykinin binding: NK2 receptor affinity in HSKR-1 cells (125 iodohistidyl-1-neurokinin A); details: HSKR-1 cells (mouse 3T3 fibroblasts expressing human jejunal NK2 receptor); 125I-neurokinin A 0.1 nM; 2 hr room temperature; mean of several experiments
T2 construct: expressed in transfected cells; host or cells: HSKR-1 cells (mouse 3T3 fibroblasts)
T2 sequence (P21452 1-398): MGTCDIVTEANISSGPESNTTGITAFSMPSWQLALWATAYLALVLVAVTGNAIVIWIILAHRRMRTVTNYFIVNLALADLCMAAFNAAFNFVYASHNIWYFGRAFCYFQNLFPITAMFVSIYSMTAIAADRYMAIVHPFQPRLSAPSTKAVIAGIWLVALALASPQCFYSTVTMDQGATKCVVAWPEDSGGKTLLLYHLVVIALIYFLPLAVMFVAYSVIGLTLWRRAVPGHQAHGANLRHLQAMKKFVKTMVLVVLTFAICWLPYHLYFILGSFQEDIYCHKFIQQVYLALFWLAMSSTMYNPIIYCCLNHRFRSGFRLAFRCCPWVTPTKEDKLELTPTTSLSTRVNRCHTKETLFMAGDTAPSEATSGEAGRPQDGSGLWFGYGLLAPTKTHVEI
Procedure: as §1, §2

NK1 receptor [3] = biological target: T3, NK1 receptor (Homo sapiens, UniProt P25103); assay: Antagonism of tachykinin (SP)-induced phosphatidylinositol (PI) turnover in vitro, UCll cells; type: cell-based; details: SP agonist, 3 experiments
T3 construct: Receptor source for NK1 receptor is UCll cells; endogenous in cells; host or cells: UC11 cells (printed UCll)
Procedure: (§3) Tachykinin-mediated phosphatidylinositol (PI, inositol phosphate) accumulation was measured in UCll or SKLKB82#3 cells in the presence and absence of NK1 or NK2 receptor antagonists, respectively. Tissues were incubated in Krebs-Henseleit buffer at 37° C. with 95% O2 --5% CO2 gassing. Tissues were then incubated with fresh buffer containing 100 μCi of myo-[2-^3 H(N)] inositol at 37° C. for 60 min with gentle gassing. After washing twice in 5 ml room temperature buffer containing 10 mM LiCl, tissues were incubated for 30 min at room temperature with a buffer change at 15 min. […] The third elution was collected and 1 ml counted in 7 ml scintillation fluid. A 50 μl aliquot of the organic (bottom) phase was removed, dried in a scintillation vial and counted in 7 ml scintillation fluid.
(§4) The ratio of DPM in the aqueous phase aliquot (total inositol phosphates) to the DPM in the 50 μl organic phase aliquot (total [^3 H]inositol incorporated) was calculated for each sample. Data are expressed as a percent of agonist-induced accumulation of [^3 H]-inositol phosphates over basal levels. […] Dose-response graphs are constructed and the ability of the test compounds to inhibit tachykinin-induced phosphatidyinositol turnover determined with the aid of a computer program. […]

NK2 receptor = biological target: T4, NK2 receptor (Bos taurus, UniProt P05363); assay: Antagonism of tachykinin (NKA)-induced phosphatidylinositol (PI) turnover in vitro, SKLKB82#3 cells; type: cell-based; details: NKA agonist, 3 experiments
T4 construct: expressed in transfected cells; host or cells: SKLKB82#3 cells (murine B82 fibroblasts, own knowledge)
T4 sequence (P05363 1-384): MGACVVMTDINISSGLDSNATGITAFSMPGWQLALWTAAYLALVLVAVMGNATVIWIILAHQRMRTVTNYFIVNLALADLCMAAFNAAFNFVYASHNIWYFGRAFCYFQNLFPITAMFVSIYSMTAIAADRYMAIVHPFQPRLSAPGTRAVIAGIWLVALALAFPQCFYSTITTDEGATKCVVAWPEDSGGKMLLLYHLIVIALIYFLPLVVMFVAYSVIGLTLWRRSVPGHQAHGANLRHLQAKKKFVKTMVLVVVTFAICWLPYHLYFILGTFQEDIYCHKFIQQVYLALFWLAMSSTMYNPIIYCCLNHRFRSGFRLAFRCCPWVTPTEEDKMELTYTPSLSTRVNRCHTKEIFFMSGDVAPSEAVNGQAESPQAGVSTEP
Procedure: as §3, §4

UCll or SKLKB82#3 cells = assay: Phosphatidylinositol (PI) turnover in vitro, UCll or SKLKB82#3 cells, statements not split by receptor; type: cell-based
Procedure: as §3, with “min. Buffer was removed and Krebs-Henseleit buffer (containing 40 μg/ml bacitracin, 4 μg/ml each of leupeptin and chymostatin, 0.1% bovine serum albumin and 10 mM each of thiorphan and LiCl) including the test compound is added. After 15 min, SP was added to UCll cells or NKA to SKLKB82#3 cells at various concentrations to start the reaction. After incubation for 60 min at room temperature the reaction was terminated by addition of 930 μl chloroform: methanol (1:2 by volume) to each tube, followed by 310 μl chloroform and 310 μl doubly distilled water.” for “min.”
as §4, with “program. Data is expressed as percent stimulation of total inositol phosphate accumulation over basal levels and normalized to the maximum response produced by SP.” for “program.”

T3 sequence (P25103 whole entry): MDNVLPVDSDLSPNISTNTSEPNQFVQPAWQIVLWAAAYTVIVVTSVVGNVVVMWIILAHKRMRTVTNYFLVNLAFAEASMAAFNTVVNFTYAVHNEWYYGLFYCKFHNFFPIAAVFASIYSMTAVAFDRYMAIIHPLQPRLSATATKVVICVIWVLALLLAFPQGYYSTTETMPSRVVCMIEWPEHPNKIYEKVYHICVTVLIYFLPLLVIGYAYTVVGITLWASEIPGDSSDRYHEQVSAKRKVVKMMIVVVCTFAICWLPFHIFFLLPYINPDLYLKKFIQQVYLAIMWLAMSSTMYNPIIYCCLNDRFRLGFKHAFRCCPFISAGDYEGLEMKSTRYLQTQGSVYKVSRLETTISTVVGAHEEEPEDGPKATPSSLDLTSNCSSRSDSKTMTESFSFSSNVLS
T1 sequence (P30547 whole entry): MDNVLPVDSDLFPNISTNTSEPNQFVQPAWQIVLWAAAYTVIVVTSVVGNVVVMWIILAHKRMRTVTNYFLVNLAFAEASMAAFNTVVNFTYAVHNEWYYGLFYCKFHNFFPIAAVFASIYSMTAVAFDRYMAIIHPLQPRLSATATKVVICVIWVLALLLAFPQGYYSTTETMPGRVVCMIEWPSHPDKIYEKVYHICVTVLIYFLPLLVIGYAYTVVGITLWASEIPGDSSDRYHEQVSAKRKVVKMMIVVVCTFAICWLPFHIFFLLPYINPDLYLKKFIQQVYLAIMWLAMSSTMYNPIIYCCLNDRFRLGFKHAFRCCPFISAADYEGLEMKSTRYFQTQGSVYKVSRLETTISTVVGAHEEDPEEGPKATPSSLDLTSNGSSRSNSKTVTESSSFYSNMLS

IC50 (NK1 receptor [1]): 25.7 nM | IC50 [2]: 609 nM | -slope (Schild analysis), NK1 receptor (NK1 receptor [3]): 1.28 | pA2, tachykinin-induced PI turnover, NK1 receptor (NK1 receptor [3]; Schild analysis): 7.34 | -slope (Schild analysis), NK2 receptor (NK2 receptor): 1.11 | pA2, tachykinin-induced PI turnover, NK2 receptor (NK2 receptor; Schild analysis): 6.70
SMILES: COC(=O)[C@H](Cc1c[nH]c2ccccc12)NCCN[C@@H](Cc1ccc2ccccc2c1)C(=O)N(C)Cc1ccccc1OC [Compound No. 1]
slope of the lines obtained by a Schild analysis versus one (UCll or SKLKB82#3 cells; Schild analysis, 3 experiments): not significantly different from one (1) | PI turnover when administered by itself (agonist activity) (UCll or SKLKB82#3 cells; compound alone, no tachykinin agonist): no PI turnover | mode of antagonism (UCll or SKLKB82#3 cells; from Schild analysis slope): competitive antagonist
